Legend:
rat GPR55 = target: T1, rat GPR55 (Rattus norvegicus, UniProt F1MAK4); assay: Ca2+ mobilization assay (FLIPR, Calcium5 dye), rat GPR55; assay type: cell-based; conditions: HEK293 cells co-expressing PK-tagged rat GPR55 and EA-tagged beta-arrestin; intracellular calcium increase
T1 construct: expressed in transfected cells; host or cells: HEK293 (human embryonic kidney) cells
T1 sequence (F1MAK4 1-319): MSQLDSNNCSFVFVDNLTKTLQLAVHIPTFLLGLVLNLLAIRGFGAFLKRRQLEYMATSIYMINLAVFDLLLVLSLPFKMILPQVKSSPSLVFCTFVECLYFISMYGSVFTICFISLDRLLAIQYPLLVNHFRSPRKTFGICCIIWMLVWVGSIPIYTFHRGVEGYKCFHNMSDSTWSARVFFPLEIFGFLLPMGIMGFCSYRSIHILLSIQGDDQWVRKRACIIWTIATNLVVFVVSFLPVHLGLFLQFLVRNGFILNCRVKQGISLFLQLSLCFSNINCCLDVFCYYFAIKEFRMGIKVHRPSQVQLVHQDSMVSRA
Protocol: (§1) This cell-based assay measures the ability of compounds to activate the GPR55 receptor by measuring changes in intracellular calcium levels. HEK293 (human embryonic kidney) cells co-expressing recombinant ProLink (PK) tagged human or rat GPR55 and Enzyme Acceptor (EA) tagged beta-arrestin were seeded into PDL-coated, black-walled clear-bottom 384 well plates in assay buffer (25 mM HEPES, HBSS, 1 mM Probenicid, 0.1% BSA, pH 7.4) containing Calcium5 dye (Molecular Devices). Cells were incubated in suspension with the Calcium5 dye for 1 hour at 37° C., 5% CO2. Dilution series of the compounds in assay buffer were added to the cells in duplicate wells and compound-mediated real-time increases in intracellular calcium concentration were recorded as increased fluorescence using the Molecular Devices FLIPR instrument. Kinetic traces were reduced to a numerical value by subtracting the minimum response from the maximum response.

human GPR55 = target: T2, human GPR55 (Homo sapiens, UniProt Q9Y2T6); assay: Ca2+ mobilization assay (FLIPR, Calcium5 dye), human GPR55; assay type: cell-based; conditions: HEK293 cells co-expressing PK-tagged human GPR55 and EA-tagged beta-arrestin; intracellular calcium increase
T2 construct: expressed in transfected cells; host or cells: HEK293 (human embryonic kidney) cells
T2 sequence (Q9Y2T6 whole entry): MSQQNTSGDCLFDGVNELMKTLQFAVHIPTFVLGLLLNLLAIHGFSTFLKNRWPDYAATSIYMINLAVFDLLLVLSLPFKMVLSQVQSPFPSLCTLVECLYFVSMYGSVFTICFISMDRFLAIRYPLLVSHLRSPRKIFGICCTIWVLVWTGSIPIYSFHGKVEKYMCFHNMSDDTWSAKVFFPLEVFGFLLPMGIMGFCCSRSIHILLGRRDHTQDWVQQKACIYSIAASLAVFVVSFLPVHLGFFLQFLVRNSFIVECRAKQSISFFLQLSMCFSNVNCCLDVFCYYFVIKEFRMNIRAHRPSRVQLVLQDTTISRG
Protocol: as §1

Row | EC50 (rat GPR55) | EC50 (human GPR55) | SMILES
1 | ≤ 50 nM |  | CN=S(C)(=O)c1cncc(-c2ccc(N[C@H](C)c3ccc(F)cc3)nc2)c1 (single isomer, unassigned) [Example 30a]
2 | ≤ 1000 nM | ≤ 1000 nM | C[C@@H](Nc1ncc(-c2ccc3oc(=O)n(C)c3c2)nn1)c1ccc(F)cc1F [Example 75, (R)-5-(3-((1-(2,4-difluorophenyl)ethyl)amino)-1,2,4-triazin-6-yl)-3-methylbenzo[d]oxazol-2(3H)-one]
3 | ≤ 5000 nM | ≤ 1000 nM | C[C@@H](Nc1ccc(-c2cncc(N(C)C)c2)cn1)c1ccc(F)cc1 [Example 12, (R)-N6′-(1-(4-fluorophenyl)ethyl)-N5,N5-dimethyl-[3,3′-bipyridine]-5,6′-diamine]
4 | ≤ 200 nM | ≤ 50 nM | C[C@@H](Nc1cnc(-c2cncc(CCF)c2)cn1)c1ccc(F)cc1 [Example 52, (R)-5-(5-(2-fluoroethyl)pyridin-3-yl)-N-(1-(4-fluorophenyl)ethyl)pyrazin-2-amine]
5 | ≤ 1000 nM | ≤ 50 nM | CCc1cncc(-c2ccc(N[C@H](C)c3ccccc3)nc2)c1 [Example 49, (R)-5′-ethyl-N-(1-phenylethyl)-[3,3′-bipyridin]-6-amine]
6 | ≤ 50 nM | ≤ 50 nM | C[C@@H](Nc1cnc(-c2cncc(C(O)C(F)(F)F)c2)cn1)c1ccc(F)cc1 (single isomer, unassigned) [Example 32a]
7 | ≤ 1000 nM | ≤ 1000 nM | CCc1cncc(-c2ccc(N[C@H](C)c3ccccc3F)nc2)c1 [Example 19, (R)-5′-ethyl-N-(1-(2-fluorophenyl)ethyl)-[3,3′-bipyridin]-6-amine]
8 | ≤ 5000 nM | ≤ 1000 nM | C[C@@H](Nc1ccc(-c2ccc3oc(=O)[nH]c3c2)cn1)c1ccc(F)cc1 [Example 59, (R)-5-(6-((1-(4-fluorophenyl)ethyl)amino)pyridin-3-yl)benzo[d]oxazol-2(3H)-one]
9 | ≤ 1000 nM | ≤ 200 nM | C[C@@H](Nc1ncc(-c2ccc3ocnc3c2)nn1)c1ccc(F)cc1 [Example 80, (R)-6-(benzo[d]oxazol-5-yl)-N-(1-(4-fluorophenyl)ethyl)-1,2,4-triazin-3-amine]
10 | ≤ 50 nM |  | C[C@@H](Nc1ccc(-c2cncc(S(C)(=N)=O)c2)cn1)c1ccc(F)cc1 (mixture of isomers) [Example 27, (6′-(((R)-1-(4-fluorophenyl)ethyl)amino)-[3,3′-bipyridin]-5-yl)(imino)(methyl)-λ^6-sulfanone]
11 | ≤ 5000 nM |  | C[C@@H](Nc1cnc(-c2cncc(CC(F)(F)F)c2)cn1)c1ccc(F)cc1 [Example 53, (R)-N-(1-(4-fluorophenyl)ethyl)-5-(5-(2,2,2-trifluoroethyl)pyridin-3-yl)pyrazin-2-amine]
12 | ≤ 1000 nM | ≤ 200 nM | CCS(=O)(=O)c1cncc(-c2ccc(N[C@H](C)c3ccc(F)cc3)nc2)c1 [Example 15, (R)-5′-(ethylsulfonyl)-N-(1-(4-fluorophenyl)ethyl)-[3,3′-bipyridin]-6-amine]
13 | ≤ 1000 nM | ≤ 50 nM | C[C@@H](Nc1cnc(-c2cncc(C(O)C(F)(F)F)c2)cn1)c1ccc(F)cc1 (single isomer, unassigned) [Example 32b]
14 | ≤ 200 nM | ≤ 200 nM | C[C@@H](Nc1ccc(-c2cncc(S(C)(=O)=O)c2)cn1)c1ccc(F)cc1 [Example 7, (R)-N-(1-(4-fluorophenyl)ethyl)-5′-(methylsulfonyl)-[3,3′-bipyridin]-6-amine]
15 | ≤ 200 nM |  | C[C@@H](Nc1ccc(-c2cncc(S(C)(=N)=O)c2)cn1)c1ccc(F)cc1 (single isomer, unassigned) [Example 27a]
16 | ≤ 1000 nM | ≤ 1000 nM | Cc1cc(C(C)Nc2ncc(-c3ccc4oc(=O)n(C)c4c3)nn2)ccc1F (single isomer, unassigned) [Example 77a, 5-(3-((1-(4-fluoro-3-methylphenyl)ethyl)amino)-1,2,4-triazin-6-yl)-3-methylbenzo[d]oxazol-2(3H)-one]
17 | ≤ 50 nM |  | Cc1cncc(-c2ccc(N[C@H](C)c3ccc(F)cc3)nc2)c1 [Example 3, (R)-N-(1-(4-fluorophenyl)ethyl)-5′-methyl-[3,3′-bipyridin]-6-amine]
18 | ≤ 1000 nM | ≤ 1000 nM | Cc1cncc(-c2ccc(N[C@H](C)c3ccc(F)cc3)nc2)c1C [Example 11, (R)-N-(1-(4-fluorophenyl)ethyl)-4′,5′-dimethyl-[3,3′-bipyridin]-6-amine]

Row | EC50 (rat GPR55) | EC50 (human GPR55) | SMILES
19 | ≤ 1000 nM | ≤ 1000 nM | C[C@@H](Nc1cnc(-c2cncc(C(O)C(F)F)c2)cn1)c1ccc(F)cc1 (single isomer, unassigned) [Example 54b]
20 | ≤ 50 nM | ≤ 200 nM | CNCc1cncc(-c2cnc(N[C@H](C)c3ccc(F)cc3)cn2)c1 [Example 37, (R)-N-(1-(4-fluorophenyl)ethyl)-5-(5-(methylamino)methylpyridin-3-yl)pyrazin-2-amine]
21 | ≤ 1000 nM | ≤ 200 nM | C[C@@H](Nc1ncc(-c2ccc3oc(=O)n(C(F)F)c3c2)nn1)c1ccc(F)cc1 [Example 68, (R)-3-(difluoromethyl)-5-(3-((1-(4-fluorophenyl)ethyl)amino)-1,2,4-triazin-6-yl)benzo[d]oxazol-2(3H)-one]
22 | ≤ 50 nM |  | CN=S(C)(=O)c1cncc(-c2ccc(N[C@H](C)c3ccc(F)cc3)nc2)c1 (mixture of isomers) [Example 30, (6′-(((R)-1-(4-fluorophenyl)ethyl)amino)-[3,3′-bipyridin]-5-yl)(methyl)(methylimino)-λ6-sulfanone]
23 | ≤ 5000 nM | ≤ 1000 nM | C[C@@H](Nc1ncc(-c2ccc3oc(=O)n(C)c3c2)nn1)c1ccc(Cl)cc1 [Example 73, (R)-5-(3-((1-(4-chlorophenyl)ethyl)amino)-1,2,4-triazin-6-yl)-3-methylbenzo[d]oxazol-2(3H)-one]
24 | ≤ 5000 nM |  | C[C@@H](Nc1ncc(-c2cncc(CC(F)(F)F)c2)nn1)c1ccc(F)cc1 [Example 55, (R)-N-(1-(4-fluorophenyl)ethyl)-6-(5-(2,2,2-trifluoroethyl)pyridin-3-yl)-1,2,4-triazin-3-amine]
25 | ≤ 1000 nM | ≤ 200 nM | COCn1c(=O)oc2ccc(-c3cnc(N[C@H](C)c4ccc(F)cc4)nn3)cc21 [Example 66, (R)-5-(3-((1-(4-fluorophenyl)ethyl)amino)-1,2,4-triazin-6-yl)-3-(methoxymethyl)benzo[d]oxazol-2(3H)-one]
26 | ≤ 200 nM |  | C[C@@H](Nc1ncc(-c2ccc3oc(=O)n(C)c3c2)nn1)c1ccc(F)cc1 [Example 64, (R)-5-(3-((1-(4-fluorophenyl)ethyl)amino)-1,2,4-triazin-6-yl)-3-methylbenzo[d]oxazol-2(3H)-one]
27 | ≤ 5000 nM |  | C[C@@H](Nc1ncc(-c2cncc(S(C)(=O)=O)c2)cn1)c1ccc(F)cc1 [Example 25, (R)-N-(1-(4-fluorophenyl)ethyl)-5-(5-(methylsulfonyl)pyridin-3-yl)pyrimidin-2-amine]
28 | ≤ 50 nM | ≤ 200 nM | C[C@@H](Nc1ccc(-c2cncc(Cl)c2)cn1)c1ccc(F)cc1 [Example 9, (R)-5′-chloro-N-(1-(4-fluorophenyl)ethyl)-[3,3′-bipyridin]-6-amine]
29 | ≤ 5000 nM | ≤ 1000 nM | C[C@@H](Nc1ncc(-c2ccc3oc(=O)n(CS(C)(=O)=O)c3c2)nn1)c1ccc(F)cc1 [Example 72, (R)-5-(3-((1-(4-fluorophenyl)ethyl)amino)-1,2,4-triazin-6-yl)-3-((methylsulfonyl)methyl)benzo[d]oxazol-2(3H)-one]
30 | ≤ 5000 nM | ≤ 1000 nM | CCc1cncc(-c2ccc(N[C@H](C)c3ccc(OC)cc3)nc2)c1 [Example 47, (R)-5′-ethyl-N-(1-(4-methoxyphenyl)ethyl)-[3,3′-bipyridin]-6-amine]
31 | ≤ 1000 nM |  | CN=S(C)(=O)c1cncc(-c2ccc(N[C@H](C)c3ccc(F)cc3)nc2)c1 (single isomer, unassigned) [Example 30b]
32 | ≤ 5000 nM |  | Cc1cncc(-c2ccc(NC(C)c3ccc(F)cc3)nc2)c1 (stereo not drawn) [Example 1, N-(1-(4-fluorophenyl)ethyl)-5′-methyl-[3,3′-bipyridin]-6-amine]
33 | ≤ 1000 nM |  | C[C@@H](Nc1ccc(-c2ccc3oc(=O)n(C)c3c2)cn1)c1ccc(F)cc1 [Example 60, (R)-5-(6-((1-(4-fluorophenyl)ethyl)amino)pyridin-3-yl)-3-methylbenzo[d]oxazol-2(3H)-one]
34 | ≤ 50 nM |  | C[C@@H](Nc1ccc(-c2cncc(C(F)(F)F)c2)cn1)c1ccc(F)cc1 [Example 8, (R)-N-(1-(4-fluorophenyl)ethyl)-5′-(trifluoromethyl)-[3,3′-bipyridin]-6-amine]
35 | ≤ 1000 nM |  | C[C@@H](Nc1ccc(-c2cncc(S(C)(=N)=O)c2)cn1)c1ccc(F)cc1 (single isomer, unassigned) [Example 27b]
36 | ≤ 1000 nM |  | CCc1cncc(-c2ccc(N[C@H](C)c3ccc(F)cc3)nc2)c1 [Example 4, (R)-5′-ethyl-N-(1-(4-fluorophenyl)ethyl)-[3,3′-bipyridin]-6-amine]

From patent US20250282728A1, “NITROGEN COMPRISING HETEROCYCLIC DERIVATIVES FOR THE TREATMENT OF DISORDERS ASSOCIATED WITH GPR55 RECEPTOR” (Cerevance, Inc., priority 2022, published 2025)
